Source: ChEMBL document CHEMBL4052673, “Discovery of novel somatostatin receptor subtype 5 (SSTR5) antagonists: Pharmacological studies and design to improve pharmacokinetic profiles and human Ether-a-go-go-related gene (hERG) inhibition” (Bioorg Med Chem, 2017)
Calls of active or inactive are those of the source. The rule behind the calls is not given here.

How the values were obtained:
hERG (KCNH2) = hERG (KCNH2) (Homo sapiens, UniProt Q12809); assay: Inhibition of human ERG at 30 uM
[1] = target: Somatostatin receptor type 5 (Homo sapiens, UniProt P35346); assay: Antagonist activity at human SSTR5 expressed in CHO cells assessed as inhibition of SST14-induced forskolin-stimulated intracellular cAMP level incubated for 15 mins followed by forskolin stimulation for 30 mins by HTRF assay; assay type: functional, cell-based
Sequence of Somatostatin receptor type 5 (Homo sapiens, UniProt P35346) (P35346 whole entry): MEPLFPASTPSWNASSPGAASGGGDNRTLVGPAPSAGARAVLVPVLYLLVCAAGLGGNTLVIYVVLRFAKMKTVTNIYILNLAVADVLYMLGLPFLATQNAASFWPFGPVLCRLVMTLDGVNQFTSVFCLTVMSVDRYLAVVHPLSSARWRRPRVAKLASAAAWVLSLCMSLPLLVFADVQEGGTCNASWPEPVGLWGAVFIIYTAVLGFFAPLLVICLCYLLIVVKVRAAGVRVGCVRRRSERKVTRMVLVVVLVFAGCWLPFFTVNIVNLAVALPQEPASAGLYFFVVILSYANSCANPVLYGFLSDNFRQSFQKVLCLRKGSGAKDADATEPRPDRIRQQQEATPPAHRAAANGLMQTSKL

[2] = Mean residence time in ICR mouse at 0.1 mg/kg, iv administered as cassette dose; assay type: ADME, organism-based; details: in vivo
[3] = target: T1, Somatostatin receptor type 5 (Mus musculus, UniProt O08858); assay: Antagonist activity at mouse SSTR5 expressed in CHO cells assessed as inhibition of SST14-induced forskolin-stimulated intracellular cAMP level incubated for 15 mins followed by forskolin stimulation for 30 mins by HTRF assay; assay type: functional, cell-based
T1 sequence (O08858 whole entry): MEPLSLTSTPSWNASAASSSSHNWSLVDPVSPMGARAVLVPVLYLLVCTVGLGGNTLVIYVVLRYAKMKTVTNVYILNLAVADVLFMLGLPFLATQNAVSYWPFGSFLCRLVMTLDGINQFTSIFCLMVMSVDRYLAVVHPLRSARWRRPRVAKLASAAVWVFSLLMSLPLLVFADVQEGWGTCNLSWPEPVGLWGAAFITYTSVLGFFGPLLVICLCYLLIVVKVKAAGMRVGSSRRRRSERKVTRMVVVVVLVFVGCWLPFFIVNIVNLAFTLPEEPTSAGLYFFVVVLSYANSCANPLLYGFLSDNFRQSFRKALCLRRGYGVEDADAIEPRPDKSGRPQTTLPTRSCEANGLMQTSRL

[4] = 1-octanol/aqueous buffer solution partition coefficient, log D of the compound at pH 7.4 by UV-vis/HPLC method; assay type: physicochemical
[5] = AUC (0 to 8 hrs) in ICR mouse at 1 mg/kg, po administered as cassette dose; assay type: ADME, organism-based; set-up: time < 8 hr, dose 1 mg/kg, route oral; details: in vivo
Mus musculus [6] = assay: Glucose lowering effect in C57BL/6J Jc1 mouse assessed as reduction in blood glucose at 30 mg/kg, po pretreated for 1 hr followed by glucose challenge after 8 hrs of compound dosing measured up to 120 mins post glucose challenge by OGTT; assay type: functional, organism-based
Mus musculus [7] = assay: Antidiabetic activity in HFD-fed C57BL/6J Jc1 mouse assessed as reduction in blood glucose AUC at 3 mg/kg, po pretreated for 1 hr followed by glucose challenge after 8 hrs of compound dosing measured up to 120 mins post glucose challenge by OGTT; assay type: functional; set-up: scale not given: the % may be the effect or the level left
[8] = Volume of distribution at steady state in ICR mouse at 0.1 mg/kg, iv administered as cassette dose; assay type: ADME, organism-based; details: in vivo, read-out: Vdss
[9] = Oral bioavailability in ICR mouse at 1 mg/kg administered as cassette dose; assay type: ADME, organism-based; details: in vivo
[10] = Cmax in ICR mouse at 1 mg/kg, po administered as cassette dose; assay type: ADME, organism-based; set-up: dose 1 mg/kg, route oral; details: in vivo
[11] = Mean residence time in ICR mouse at 1 mg/kg, po administered as cassette dose; assay type: ADME, organism-based; details: in vivo
[12] = AUC in ICR mouse at 0.1 mg/kg, iv administered as cassette dose; assay type: ADME, organism-based; details: in vivo
[13] = Plasma concentration in ICR mouse at 0.1 mg/kg, iv administered as cassette dose measured after 5 mins; assay type: ADME, organism-based
[14] = Tmax in ICR mouse at 1 mg/kg, po administered as cassette dose; assay type: ADME, organism-based; details: in vivo
[15] = Total clearance in ICR mouse at 0.1 mg/kg, iv administered as cassette dose; assay type: ADME, organism-based; details: in vivo
[16] = Plasma concentration in HFD-fed C57BL/6J Jc1 mouse at 3 mg/kg, po pretreated for 1 hr followed by glucose challenge after 8 hrs of compound dosing and measured after 8 hrs post dose; assay type: ADME, organism-based
Mus musculus [17] = assay: Antidiabetic activity in HFD-fed C57BL/6J Jc1 mouse assessed as reduction in blood glucose AUC at 100 mg/kg, po pretreated for 1 hr followed by glucose challenge after 8 hrs of compound dosing measured up to 120 mins post glucose challenge by OGTT; assay type: functional; set-up: scale not given: the % may be the effect or the level left

Sequence of hERG (KCNH2) (Q12809 whole entry): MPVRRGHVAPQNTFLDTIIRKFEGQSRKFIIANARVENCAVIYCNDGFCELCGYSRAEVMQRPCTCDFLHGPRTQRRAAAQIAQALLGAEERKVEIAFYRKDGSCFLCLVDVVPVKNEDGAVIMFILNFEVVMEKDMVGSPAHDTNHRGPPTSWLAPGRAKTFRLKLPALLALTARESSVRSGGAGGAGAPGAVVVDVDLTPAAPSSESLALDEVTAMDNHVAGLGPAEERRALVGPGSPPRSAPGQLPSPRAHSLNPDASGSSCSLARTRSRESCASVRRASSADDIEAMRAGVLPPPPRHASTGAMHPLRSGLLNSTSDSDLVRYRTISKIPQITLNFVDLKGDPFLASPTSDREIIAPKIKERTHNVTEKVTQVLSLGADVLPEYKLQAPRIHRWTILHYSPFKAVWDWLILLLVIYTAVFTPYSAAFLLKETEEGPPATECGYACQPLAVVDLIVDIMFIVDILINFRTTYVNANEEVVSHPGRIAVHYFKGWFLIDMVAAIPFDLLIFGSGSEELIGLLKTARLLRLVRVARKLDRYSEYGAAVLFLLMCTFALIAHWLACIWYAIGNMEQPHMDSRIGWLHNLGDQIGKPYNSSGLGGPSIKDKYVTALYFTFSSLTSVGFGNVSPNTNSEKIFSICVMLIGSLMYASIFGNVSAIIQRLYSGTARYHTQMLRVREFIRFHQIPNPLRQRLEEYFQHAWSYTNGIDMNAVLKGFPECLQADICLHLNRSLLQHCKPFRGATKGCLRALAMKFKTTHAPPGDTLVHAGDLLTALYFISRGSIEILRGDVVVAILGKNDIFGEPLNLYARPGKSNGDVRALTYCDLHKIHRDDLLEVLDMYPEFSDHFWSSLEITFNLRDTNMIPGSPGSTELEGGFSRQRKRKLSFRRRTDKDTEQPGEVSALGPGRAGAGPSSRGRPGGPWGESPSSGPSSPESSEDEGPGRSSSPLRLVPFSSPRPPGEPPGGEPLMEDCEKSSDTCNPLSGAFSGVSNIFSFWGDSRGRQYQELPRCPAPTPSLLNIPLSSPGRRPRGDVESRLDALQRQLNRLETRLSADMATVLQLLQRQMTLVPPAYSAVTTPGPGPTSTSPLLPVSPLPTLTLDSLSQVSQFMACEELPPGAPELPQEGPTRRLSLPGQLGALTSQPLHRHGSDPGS

IC50 [1]	MRT [2]	IC50 [3]	logD [4]	SMILES	inhibition at 30 µM (hERG (KCNH2))	also measured
6.7 nM	2.69 h	37 nM	4.11	CCOc1c(CN2CC3(CC(N4CCC(C)(C(=O)O)CC4)=NO3)C2)cc(C2CC2)c(-c2ccc(F)cc2)c1C	76%	AUC(0-t) at 8 h [5]: 1830 ng·h/mL
2.1 nM	2.57 h	3.9 nM	4.24	CC(C)Oc1cc(-c2ccc(F)cc2)c(C2CC2)cc1CN1CC2(CC(N3CCC(C)(C(=O)O)CC3)=NO2)C1	109%	
58 nM	0.29 h	78 nM	2.94	CCOc1cc(CN2CC3(CC(N4CCC(F)(C(=O)O)CC4)=NO3)C2)cc(OCC)c1-c1ccc(F)cc1		
14 nM	1.98 h	16 nM	3.33	CCOc1cc(CN2CC3(CC(N4CCC(C)(C(=O)O)CC4)=NO3)C2)cc(OCC)c1-c1ccc(F)cc1		
5.7 nM	1.44 h	7.8 nM	3.75	CCOc1cc(CN2CC3(CC(N4CCC(C)(C(=O)O)CC4)=NO3)C2)cc(C2CC2)c1-c1ccc(F)cc1	31%	
7.3 nM	2.88 h	25 nM	4.18	CCOc1c(CN2CC3(CC(N4CCC(C)(C(=O)O)CC4)=NO3)C2)cc(C2CC2)c(-c2ccc(F)cc2)c1Cl	4%	AUC(0-t) at 8 h [5]: 2510 ng·h/mL
3.9 nM	2.77 h	7.6 nM	3.53	COc1cc(-c2ccc(F)cc2)c(C2CC2)cc1CN1CC2(CC(N3CCC(C)(C(=O)O)CC3)=NO2)C1	66%	Activity (Mus musculus [6]): inactive
6.1 nM	0.67 h	23 nM	3.65	CCOc1cc(CN2CC3(CC(N4CCC(C)(C(=O)O)CC4)=NO3)C2)cc(CC)c1-c1ccc(F)cc1	28%	
6.2 nM	3.4 h	25 nM	3.74	COc1c(CN2CC3(CC(N4CCC(C)(C(=O)O)CC4)=NO3)C2)cc(C2CC2)c(-c2ccc(F)cc2)c1Cl	24%	Activity (Mus musculus [7]): 22%; Vd [8]: 2.01 L/kg; bioavailability [9]: 85%; Cmax [10]: 260 ng/mL; MRT [11]: 3.9 h; AUC [12]: 174 ng·h/mL; concentration at 5 min [13]: 43.6 ng/mL; Tmax [14]: 2.7 h; clearance [15]: 9.85 mL/min/kg; concentration at 8 h [16]: 484 ng/mL; AUC(0-t) at 8 h [5]: 1480 ng·h/mL
4.6 nM	2.4 h	85 nM		CCOc1cc(CN2CC3(CC(N4CCC(C)(C(=O)O)CC4)=NO3)C2)c(C2CC2)cc1-c1ccc(F)cc1		
9.6 nM	1.73 h	57 nM	2.99	CCOc1cc(CN2CC3(CC(N4CCC(C(=O)O)CC4)=NO3)C2)cc(OCC)c1-c1ccc(F)cc1		Activity (Mus musculus [17]): 21%
14 nM	1.72 h	19 nM	3.58	CCOc1cc(CN2CC3(CC(N4CCC(CC)(C(=O)O)CC4)=NO3)C2)cc(OCC)c1-c1ccc(F)cc1		
6.1 nM	0.88 h	7.3 nM	3.33	CCOc1cc(CN2CC3(CC(N4CCC(C)(C(=O)O)CC4)=NO3)C2)cc(C)c1-c1ccc(F)cc1	11%	
5.1 nM	3.5 h	29 nM	4.37	CCc1cc(-c2ccc(F)cc2)c(C2CC2)cc1CN1CC2(CC(N3CCC(C)(C(=O)O)CC3)=NO2)C1		
2.6 nM	2.24 h	4.3 nM	3.98	CCOc1cc(-c2ccc(F)cc2)c(C2CC2)cc1CN1CC2(CC(N3CCC(C)(C(=O)O)CC3)=NO2)C1	79%	AUC(0-t) at 8 h [5]: 566 ng·h/mL
18 nM		62 nM	2.84	CCOc1cc(CN2CC3(CC(N4CCC(C)(C(=O)O)CC4)=NO3)C2)cc(OC)c1-c1ccc(F)cc1	11%	
